Results reported in the NIST ThermoML archive (doi:10.1016/j.jct.2012.06.018).
Numbers after ± are expanded uncertainties.

Settings: for surface tension liquid-gas: Ring tensiometer; for viscosity / mass density: 101.33 kPa, Liquid; for viscosity: Capillary tube (Ostwald / Ubbelohde) method; for mass density: Pycnometric method

CCCC[n+]1ccccc1C.O=S(=O)([N-]S(=O)(=O)C(F)(F)F)C(F)(F)F
Settings | mass density [kg/m3] | surface tension liquid-gas [mN/m] | viscosity [mPa·s]
293.15 K | 1482 ± 25 | 36.5 ± 0.6 | 143.91 ± 15
298.15 K | 1476 ± 25 | 36.3 ± 0.6 | 95.73 ± 9.7
303.15 K | 1459 ± 25 | 36.1 ± 0.6 | 72.05 ± 7.2
308.15 K | 1450 ± 25 | 35.9 ± 0.6 | 56.95 ± 5.7
313.15 K | 1446 ± 25 | 35.5 ± 0.6 | 45.83 ± 4.6
318.15 K | 1440 ± 25 | 35.2 ± 0.6 | 37.39 ± 3.8
323.15 K | 1435 ± 25 | 35 ± 0.6 | 29.48 ± 3

CCCC[n+]1ccc(C)cc1.O=S(=O)([N-]S(=O)(=O)C(F)(F)F)C(F)(F)F
Settings | mass density [kg/m3] | surface tension liquid-gas [mN/m] | viscosity [mPa·s]
293.15 K | 1419 ± 25 | 35.4 ± 0.6 | 65.26 ± 6.5
298.15 K | 1413 ± 25 | 35 ± 0.6 | 54.41 ± 5.5
303.15 K | 1412 ± 25 | 34.7 ± 0.6 | 44.42 ± 4.5
308.15 K | 1411 ± 25 | 34.5 ± 0.6 | 36.12 ± 3.6
313.15 K | 1410 ± 25 | 34.2 ± 0.6 | 29.81 ± 3
318.15 K | 1409 ± 25 | 34 ± 0.6 | 25.18 ± 2.5
323.15 K | 1405 ± 25 | 33.8 ± 0.6 | 20.23 ± 2

CCCC[n+]1cccc(C)c1.F[B-](F)(F)F [1-butyl-3-methylpyridinium tetrafluoroborate]
Settings | mass density [kg/m3] | surface tension liquid-gas [mN/m] | viscosity [mPa·s]
293.15 K | 1189 ± 25 | 47.5 ± 0.7 | 226.15 ± 23
298.15 K | 1177 ± 25 | 47.1 ± 0.7 | 169.51 ± 17
303.15 K | 1172 ± 25 | 45.8 ± 0.7 | 129.06 ± 13
308.15 K | 1168 ± 25 | 45.6 ± 0.7 | 97.03 ± 9.8
313.15 K | 1166 ± 25 | 45.3 ± 0.7 | 73.35 ± 7.4
318.15 K | 1163 ± 25 | 44.9 ± 0.7 | 59.05 ± 5.9
323.15 K | 1160 ± 25 | 44.4 ± 0.7 | 46.59 ± 4.7

CCCC[n+]1ccccc1.O=S(=O)([N-]S(=O)(=O)C(F)(F)F)C(F)(F)F [1-butylpyridinium bis[(trifluoromethyl)sulfonyl]imide]
Settings | mass density [kg/m3] | surface tension liquid-gas [mN/m] | viscosity [mPa·s]
293.15 K | 1462 ± 25 | 35 ± 0.6 | 75.61 ± 7.6
298.15 K | 1456 ± 25 | 34.8 ± 0.6 | 60.55 ± 6.1
303.15 K | 1445 ± 25 | 34.5 ± 0.6 | 48.11 ± 4.8
308.15 K | 1441 ± 25 | 34.4 ± 0.6 | 38.08 ± 3.8
313.15 K | 1439 ± 25 | 34.3 ± 0.6 | 32.37 ± 3.2
318.15 K | 1437 ± 25 | 34.2 ± 0.6 | 27.62 ± 2.8
323.15 K | 1433 ± 25 | 34.1 ± 0.6 | 22.75 ± 2.3

CCCCCC[n+]1ccccc1.O=S(=O)([N-]S(=O)(=O)C(F)(F)F)C(F)(F)F [1-hexylpyridinium bis(trifluromethylsulfonyl)imide]
Settings | mass density [kg/m3] | surface tension liquid-gas [mN/m] | viscosity [mPa·s]
293.15 K | 1386 ± 25 | 34.2 ± 0.6 | 275.12 ± 28
298.15 K | 1382 ± 25 | 33.9 ± 0.6 | 245.33 ± 25
303.15 K | 1379 ± 25 | 33.5 ± 0.6 | 201.82 ± 21
308.15 K | 1373 ± 25 | 33.3 ± 0.5 | 153.24 ± 16
313.15 K | 1368 ± 25 | 33 ± 0.5 | 131.32 ± 13
318.15 K | 1368 ± 25 | 32.8 ± 0.5 | 105.99 ± 11
323.15 K | 1362 ± 25 | 32.6 ± 0.5 | 83.66 ± 8.4

CCCC[n+]1cccc(C)c1.O=S(=O)([N-]S(=O)(=O)C(F)(F)F)C(F)(F)F
Settings | mass density [kg/m3] | surface tension liquid-gas [mN/m] | viscosity [mPa·s]
293.15 K | 1429 ± 25 | 35.8 ± 0.6 | 81.71 ± 8.2
298.15 K | 1425 ± 25 | 35.5 ± 0.6 | 64.73 ± 6.5
303.15 K | 1423 ± 25 | 35.3 ± 0.6 | 51.42 ± 5.2
308.15 K | 1421 ± 25 | 35.1 ± 0.6 | 41.73 ± 4.2
313.15 K | 1420 ± 25 | 34.8 ± 0.6 | 33.98 ± 3.4
318.15 K | 1419 ± 25 | 34.6 ± 0.6 | 29.05 ± 2.9
323.15 K | 1416 ± 25 | 34.4 ± 0.6 | 25.68 ± 2.6

CC[n+]1ccccc1.O=S(=O)([N-]S(=O)(=O)C(F)(F)F)C(F)(F)F [1-ethylpyridinium bis[(trifluoromethyl)sulfonyl]imide]
Settings | mass density [kg/m3] | surface tension liquid-gas [mN/m] | viscosity [mPa·s]
293.15 K | 1534 ± 25 | 35.6 ± 0.6 | 47.43 ± 4.8
298.15 K | 1532 ± 25 | 35.5 ± 0.6 | 39.76 ± 4
303.15 K | 1530 ± 25 | 35.4 ± 0.6 | 33.31 ± 3.3
308.15 K | 1528 ± 25 | 35.3 ± 0.6 | 27.8 ± 2.8
313.15 K | 1520 ± 25 | 35.2 ± 0.6 | 23.39 ± 2.3
318.15 K | 1519 ± 25 | 35.2 ± 0.6 | 20.2 ± 2
323.15 K | 1515 ± 25 | 35.1 ± 0.6 | 17.61 ± 1.8

CCCC[n+]1cccc(C)c1.O=S(=O)([O-])C(F)(F)F [1-butyl-3-methylpyridinium trifluoromethanesulfonate]
Settings | mass density [kg/m3] | surface tension liquid-gas [mN/m] | viscosity [mPa·s]
293.15 K | 1306 ± 25 | 38.6 ± 0.6 | 142.15 ± 14
298.15 K | 1297 ± 25 | 38.2 ± 0.6 | 126.57 ± 13
303.15 K | 1291 ± 25 | 37.5 ± 0.6 | 101.27 ± 10
308.15 K | 1285 ± 25 | 37.1 ± 0.6 | 78.04 ± 7.8
313.15 K | 1275 ± 25 | 36.9 ± 0.6 | 60.98 ± 6.1
318.15 K | 1270 ± 25 | 36.6 ± 0.6 | 48.9 ± 4.9
323.15 K | 1251 ± 25 | 36.2 ± 0.6 | 37.94 ± 3.8
